# Assay results reported in US20070179112A1, “POLYMERIC NUCLEOSIDE PRODRUGS” (Reliable Biopharmaceutical, Inc., priority 2000, published 2007).
# How the values were obtained:
# [1] = system: Snake Venom PhosphoDiEsterase, SVPDE (Phosphodiesterase I Type II)
# snake phosphodiesterase = assay: Cleavage of oligo 6 by snake phosphodiesterase (Boehringer Mannheim), monitored by CGE; format: in vitro ADME, crotalus durissus; details: 0.5 μl enzyme in water (total volume 25 μl)
# Protocol: Examples 13-22 describe cleavage of the Oligos 1-7. All cleavage experiments were performed at room temperature. The concentrations of the nucleases were reduced to slow down the rates of cleavage for the homoploymers. See S. Agrawal, in Delivery Strategies for Antisense Oligonucleotide Therapeutics, 275, 462-473, Ed. S. Akhtar, CAC Press, 1995. The Capillary Gel Electrophoresis equipment used for the studies were the Beckmman PAC/E 2200 system with Beckman Coulter E-CAP DNA capillary (#477477, […], 65 cm [27 cm effective length] loaded with Beckman Coulter E-CAP ssDNA 100-R gel and run using the Tris-Borate-Urea buffer prepared according to Beckman procedures. The CGE running conditions were as follows. The injection was done for 2 seconds at 10 kV followed by electro-osmotic flow with buffer for 30-60 min as needed at 10 kV. The cleavage reactions were monitored in most cases after 1, 2, 4, 5, 7, 10, 12, 15, 17 and 20 hrs. Some reactions were monitored after 5, 10 minutes and others after 72 and 100 hrs. The SVPDE is obtained from two different species of snakes, crotalus adamanteus and crotalus durissus. It has been observed that there is no variation in the cleavage experiments as a result of this change. […]
substance,measurement,setting,value
([cytarabine-pO]3-[2′O-methylcytidine-pO]2)3 [Oligo 2],full length oligo cleaved (estimated),[1],more than 50%
same,ratio of 2′O-MeCMP to dCMP reached as the cleavage progressed,[1],5
same,ratio of araCMP to dCMP reached as the cleavage progressed,[1],6
(cytarabine-pO)15-dC [Oligo 1],cleavage/degradation observed by CGE,[1],minor cleavage
same,oligonucleotide degraded to monomers,[1],~20%
same,oligonucleotide degraded to oligomers of smaller lengths,[1],~50%
same,ratio of araCMP to dCMP reached as the cleavage progressed,[1],13
same,"ratio of araCMP to dCMP, starting value as the cleavage progressed",[1],3
[2′O-methylcytarabine-pO] 15-dC [Oligo 5],oligonucleotide degraded,[1],more than 80%
"[dC-pO] 14-dC-OH [Oligo 6, reference compound]",digestion,[1],more than 90%
same,cleavage/degradation observed by CGE,snake phosphodiesterase; after 30 minutes,a series of shorter oligomers due to partial cleavage was observed
same,cleavage/degradation observed by CGE,snake phosphodiesterase; after 2 hours,no full length oligonucleotide was observed
"polycylidilic acid [Oligo 7, reference compound]",digestion,[1],more than 90%
